Patent US6235717A, “Pharmaceutical compounds” (Glaxo Wellcome Inc., priority 1993, dated 2001)
Starred links: 1 amine or outer side, 2 acyl side, 3 side chain; linkers in the order of their positions; H or OH if unused. Non-standard residues stand in square brackets, D forms with d. Residues, ends and D or L forms follow the SMILES beside them. *: point of attachment. Phe(4-Br) = N[C@@H](Cc1ccc(Br)cc1)C(=O)O; Phe(4-Cl) = N[C@@H](Cc1ccc(Cl)cc1)C(=O)O; 1Nal = N[C@@H](Cc1cccc2ccccc12)C(=O)O; Suc = O=C(CCC(=O)[*:2])[*:1]; Cbz = O=C(OCc1ccccc1)*; Ahx = NCCCCCC(=O)O; Bn = c1ccc(C*)cc1

molecular target: endothelin converting enzyme (ECE) (Sus scrofa, UniProt F1SU04); assay: "ECE" assay with porcine aortic "ECE" prep, fluorogenic substrate Suc-Ile-Ile-Trp-MCA; type: biochemical; conditions: pH 7
Sequence (F1SU04 entry or part of it): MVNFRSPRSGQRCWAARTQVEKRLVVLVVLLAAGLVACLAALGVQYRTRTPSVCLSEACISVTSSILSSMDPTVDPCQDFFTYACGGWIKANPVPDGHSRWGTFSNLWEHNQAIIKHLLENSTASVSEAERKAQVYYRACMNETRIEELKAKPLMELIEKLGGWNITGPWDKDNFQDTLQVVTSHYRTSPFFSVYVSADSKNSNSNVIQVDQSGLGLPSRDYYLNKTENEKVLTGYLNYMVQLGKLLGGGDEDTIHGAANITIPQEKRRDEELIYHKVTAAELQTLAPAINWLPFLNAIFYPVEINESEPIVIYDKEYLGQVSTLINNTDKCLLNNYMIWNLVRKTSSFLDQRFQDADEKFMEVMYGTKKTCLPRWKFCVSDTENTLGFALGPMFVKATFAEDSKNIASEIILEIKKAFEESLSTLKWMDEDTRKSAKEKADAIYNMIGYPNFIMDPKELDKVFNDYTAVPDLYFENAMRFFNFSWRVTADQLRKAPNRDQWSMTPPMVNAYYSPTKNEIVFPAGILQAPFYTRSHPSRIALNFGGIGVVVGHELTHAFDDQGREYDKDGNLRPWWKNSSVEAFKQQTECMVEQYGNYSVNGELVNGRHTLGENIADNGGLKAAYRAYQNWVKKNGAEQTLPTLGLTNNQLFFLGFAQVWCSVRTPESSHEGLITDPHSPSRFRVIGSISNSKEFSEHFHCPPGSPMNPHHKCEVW
Experimental: IC50 values were determined as follows:
Porcine Aortic "ECE" Prep
Porcine aortas (22-25) were obtained fresh from a local slaughterhouse and delivered in cold PBS on ice. The aortas were cut open, rinsed with cold PBS and the endothelial cell layer scraped into cold PBS using a scalpel. The endothelial cells were pelleted by centrifugation, rinsed once with cold PBS, and repelleted. The pellet was lysed by addition of 10 volumes of 10 mM Tris-HCl, pH 7.0, containing protease inhibitors and DTS, followed by brief sonication and homogenization. The lysate was centrifuged at 100,000 g for 1 hour and the supernatant applied to a MONOQ FPLC anion exchange column equilibrated in 10 mM Tris-HCl, pH 7.0 (buffer A) which was then developed with an increasing gradient of NaCl in buffer A. The active fractions were aliquoted and stored at -70° C.
The ECE assay was performed in 96-well microplates in a total volume of 200μ/well. The assay cocktail contains 100 mM Tris-HCl, pH 7.0, 20 mM CaCl2, 80 μM substrate (Suc-Ile-Ile-Trp-MCA), enzyme and test compounds. The test compounds were preincubated with the enzyme for 15-20 minutes before initiation of the assay by addition of the substrate. The assay was incubated overnight at 37° C. and the fluorescence intensity caused by the release of AMC was determined using a fluorescence microplate reader (EX360 nm/EM460 nm). IC50 values for compounds were determined by constructing concentration-effect curves for the inhibition of enzyme activity. Concentrations on the linear portion of the inhibition curve were used to determine the IC50 utilizing a Hill plot.

| Compound | IC50 [nM] |
| --- | --- |
| O=C[C@H](Cc1c[nH]c2ccccc12)NC(=O)[C@H](Cc1cccc2ccccc12)NC(=O)[C@H](Cc1ccc(Br)cc1)NC(=O)OCc1ccccc1 [Example 37, N-Benzyloxycarbonyl-S-p-bromophenylalanyl-S-1'naphthylalanyl-1-S-formyl-1-(1H-indol-3-yl-methyl)-methylamide] (Cbz-[Phe(4-Br)]-[1Nal]-Trp-aldehyde) | 7 |

same assay, conditions: porcine aortic endothelial cell ECE prep; 80 μM Suc-Ile-Ile-Trp-MCA; 15-20 min preincubation; overnight at 37° C.; pH 7.0; AMC fluorescence

| Compound | IC50 [nM] |
| --- | --- |
| CC[C@H](C)[C@H](NC(=O)OCc1ccccc1)C(=O)N[C@H](C(=O)N[C@H](C=O)CC(C)C)[C@@H](C)CC [Example 17, N-Benzyloxycarbonyl-S-isoleucyl-S-isoleucine 1-S-formyl-3-methyl-butylamide] (Cbz-Ile-Ile-Leu-aldehyde) | 4400 |
| CC[C@H](C)[C@H](NC(=O)CCCCCNC(=O)OCc1ccccc1)C(=O)N[C@H](C(=O)N[C@H](C=O)Cc1c[nH]c2ccccc12)[C@@H](C)CC [Example 71] ({Cbz-Ahx}-Ile-Ile-Trp-aldehyde) | 40 |
| COC(OC)C(Cc1c[nH]c2ccccc12)NC(=O)[C@H](Cc1c[nH]c2ccccc12)NC(=O)[C@H](Cc1c[nH]c2ccccc12)NC(=O)CCCCCNC(=O)CCCCC1SCC2NC(=O)NC21 (stereo partly drawn) [Example 78, N-[[[5-(hexahydro-2-oxo-1H-thieno[3,4-d]imidazol-4-yl)valeramido]hexanoyl]-L-trytophanyl-L-tryptophan-L-N-[1-dimethoxymethyl]2-(1H-indol-3-yl)ethyl]amide] | 10000 |
| CC[C@H](C)[C@H](NC(=O)CCCCCNC(=O)CCCCC1SCC2NC(=O)NC21)C(=O)N[C@H](C(=O)NC(Cc1c[nH]c2ccccc12)C(OC)OC)[C@@H](C)CC (stereo partly drawn) [Example 66, N-[[[5-(hexahydro-2-oxo-1H-thieno[3,4-d]imidazol-4-yl)valeramido]hexanoyl]-L-isoleucyl-L-isoleucine-L-N-[1-dimethoxymethyl]2-(1H-indol-3-yl)ethyl]amide] | 300 |
| O=C[C@H](Cc1ccc(Cl)cc1)NC(=O)[C@H](Cc1ccc(OCc2ccccc2)cc1)NC(=O)[C@H](Cc1cccc2ccccc12)NC(=O)OCc1ccccc1 [Example 39, N-Benzyloxycarbonyl-S-1'naphthylalanyl-S-(O-benzyl)tyrosyl-1-S-formyl-1-(4-chlorophenylmethyl)-methyloamide] (Cbz-[1Nal]-Tyr(Bn)-[Phe(4-Cl)]-aldehyde) | 15 |
| CC[C@H](C)[C@H](NC(=O)OCc1ccccc1)C(=O)N[C@H](C(=O)N[C@H](C=O)Cc1c[nH]c2ccccc12)[C@@H](C)CC [Example 15, N-Benzyloxycarbonyl-S-isoleucyl-S-isoleucine 1-S-formyl-2-(1H-indol-3-yl]ethylamide] (Cbz-Ile-Ile-Trp-aldehyde) | 200 |
| CCOc1ccc(C[C@H](NC(=O)OCc2ccccc2)C(=O)N[C@@H](Cc2ccc(OCc3ccccc3)cc2)C(=O)N[C@H](C=O)Cc2ccc(Br)cc2)cc1 [Example 100, N-Benzyloxycarbonyl-S-(O-ethyl)tyrosyl-S-(O-benzyl)tyrosyl-1-S-formyl-1-(4-bromophenylmethyl)-methylamide] (Cbz-Tyr(Et)-Tyr(Bn)-[Phe(4-Br)]-aldehyde) | 60 |
| O=C[C@H](Cc1c[nH]c2ccccc12)NC(=O)[C@H](Cc1c[nH]c2ccccc12)NC(=O)[C@H](Cc1c[nH]c2ccccc12)NC(=O)CCCCC1SCC2NC(=O)NC21 (stereo partly drawn) [Example 91, N-[[5-(hexahydro-2-oxo-1H-thieno[3,4-d]imidazol-4-yl)pentanoyl]-L-tryptophanyl-L-tryptophan-L-N-[1-formyl]2-(1H-indol-3-yl)ethyl]amide] | 5 |
| N-[(benzyloxy)carbonyl]-L-aspart-1-yl]-L-isoleucyl-L-isoleucine-L-N-[1-dimethoxymethyl]2-(1H-indol-3-yl)ethyl]amide [Example 76] | 2600 |
| N-Benzyloxycarbonyl-L-isoleucyl-L-isoleucine-L-N-[1-[2-oxiranylcarbonyl]-2- (phenyl)ethyl]amide [Example 45] | 200 |
| CC[C@H](C)[C@H](NC(=O)CCC(=O)O)C(=O)N[C@H](C(=O)N[C@H](C=O)Cc1c[nH]c2ccccc12)[C@@H](C)CC [Example 61] (Suc-Ile-Ile-Trp-aldehyde) | 800 |
| N-[benzyloxy)carbonyl]-L-aspart-1-yl]-L-isoleucyl-L-isoleucine-L-N-[1-formyl]2-(1H-indol-3-yl)ethyl]amide [Example 65] | 100 |
| N-Benzyloxycarbonyl-L-isoleucyl-L-isoleucine-L-N-[1-formylhydroxymethyl-2-(phenylethyl]amide) [Example 47] | 5000 |
| CC[C@H](C)[C@H](NC(=O)OCc1ccccc1)C(=O)N[C@H](C(=O)NC(Cc1c[nH]c2ccccc12)NC(=O)COC(C)=O)[C@@H](C)CC (some centres unmarked) [Example 80] | 10000 |
| CC[C@H](C)[C@H](NC(=O)OCc1ccccc1)C(=O)N[C@@H](Cc1c[nH]c2ccccc12)C(=O)N[C@H](C=O)Cc1c[nH]c2ccccc12 [Example 30, N-Benzyloxycarbonyl-S-isoleucyl-S-tryptophanyl-1-S-formyl-1-(1H-indol-3-yl-methyl)-methylamide] (Cbz-Ile-Trp-Trp-aldehyde) | 200 |
| N-Benzyloxycarbonyl-S-isoleucyl-S-phenylalanyl-1-S-formyl-1-(S)-1-methylpropylbutyl-methylamide [Example 23] | 3500 |
| CCC(C)C(NC(=O)OCc1ccccc1)C(=O)NC(Cc1ccccc1)C(=O)NC(C=O)Cc1c[nH]c2ccccc12 (stereo not drawn) [Example 27, N-Benzyloxycarbonyl-S-isoleucyl-S-phenylalanyl-1-S-formyl-1-(1H-indol-3-yl-methyl)-methylamide] (Cbz-Ile-Phe-Trp-aldehyde; configuration not given here) | 500 |
| N-Benzyloxycarbonyl-L-isoleucyl-L-isoleucine-L-N-[1-glyoxyloyl-2-(phenyl)ethyl]amide [Example 46] | 800 |
| N-Benzyloxycarbonyl-L-isoleucyl-L-isoleucine-L-N-[(E)-2-(methoxycarbonyl)vinyl]2-(1H-indol-3-yl)ethyl]amide [Example 51] | 10000 |
| N-Benzyloxycarbonyl-L-isoleucyl-L_isoleucine-L-N-[1[2-(acetylthio)acetyl]2- phenyl)ethyl]amide [Example 55] | 8000 |
| CC[C@H](C)[C@H](NC(=O)OCc1ccccc1)C(=O)N[C@H](C(=O)NC(CNC(=O)CO)Cc1c[nH]c2ccccc12)[C@@H](C)CC (stereo partly drawn) [Example 86, N-(benzyloxy)carbonyl-L-isoleucyl-L-isoleucine-L-N-[1-[(2-hydroxyacetamido]methyl]-2-(1H-indol-3-yl)ethyl]amide] | 10000 |
| CCC(C)C(NC(=O)C(CC(C)C)NC(=O)OCc1ccccc1)C(=O)NC(C=O)Cc1c[nH]c2ccccc12 (stereo not drawn) [Example 28] (Cbz-Leu-Ile-Trp-aldehyde; configuration not given here) | 200 |
